Data on one compound can be found in publication PMC11859423, “Fluorescent Probes to Image the KCa3.1 Channel in Tumor Cells” (Pharmaceutics, 2025).

Values joined by “and” are separate entries in the source; they are usually repeats but may differ in a detail not shown here. Equal values may be shown once. “Also recorded” adds a separate entry of the source.

The target of data set [1] is T1, KCa3.1 channel in A549-3R cells (Homo sapiens, UniProt O15554).
T1 construct: the non-small cell lung cancer cell line A549-3R with a high expression of the KCa3.1 channel was employed; endogenous in cells; host or cells: A549-3R cells
Kind of data set: Staining of living A549-3R cells (Protocol 2). The format is cell-based. The protocol:
The cells were used without fixation. After incubation of the cells for 24 h (Section 2.10.1), the medium was removed, and the cells were washed three times with 1 mL of PBS. […]
An Axiovert 200 inverted microscope (Carl Zeiss AG, Jena, Germany) with a ×100 oil immersion objective and a digital camera (SPOT RT SE from Diagnostic Instruments Inc., Livingston, UK) were used. The camera was controlled by MetaVue software (version 6.3r6, Visitron, Germany). Two different filter sets were employed, the FITC filter set (Carl Zeiss Filter Set 10 bandwidth excitation filter 450–490, color splitter 510, bandpass filter 515–565) and the TRITC filter set (Carl Zeiss Filter Set 15, bandpass excitation filter 546/12, dichroic mirror 580, emission filter Long Pass 590).
Using the free imaging software ImageJ (1.53f51, NIH, USA), squares with an edge length of 50 × 50 pixels, corresponding to an area of 9 µm^2, were randomly placed in a cell and signals with Full Width at Half Maximum (FWHM) of ≤5 pixels (~300 nm) were counted as a KCa3.1 channel. For the evaluation, 7 squares were analyzed.
In the next experiment, living A549-3R cells were stained with 10b.

A short description of data set [2]: logP by HPLC retention time correlation. The format is physicochemical. Particulars: standardized reversed phase HPLC system. Here is the method:
The logP values were recorded using HPLC analysis. Thus, the retention time of the test compound in a standardized reversed phase HPLC system is correlated with the retention times of compounds with known logP values.
In addition to the logD7.4 values, the logP values of the fluorescent probes were recorded by HPLC, i.e., after calibration of the method, the retention times were correlated with the logP values or the compounds [33]. […] Fluorescein-labeled ligands 21a and 21b are considerably more polar than the corresponding bodipy-labeled senicapoc derivatives.

Data set [3] concerns the target T1, KCa3.1 channel in A549-3R cells. Kind of data set: Co-staining of permeabilized A549-3R cells with fluorescent probe and antibodies (Protocols 7a and 7b). The format is cell-based. Particulars: for Average Green (in % ± SD): green = channels stained with 10b; for Average Red (in % ± SD): red = channels stained with antibodies. The protocol:
The cells were stained with antibodies as described in Protocol 6. Afterwards, the cells were stained with 300 µL of staining solution and the mixture was incubated for 10 min at 4 °C in a dark chamber. Subsequently, the cells were washed five times with 1 mL of PBS and were used for fluorescence microscopy.
The cells were treated as described in Protocol 5 to permeabilize the cells. Subsequently, staining solution was added and the cells were incubated for 10 min as described in Protocol 1. After washing the cells three times with PBS, Protocol 6 for the antibody staining was performed. Subsequently, the cells were used for fluorescence microscopy.
For the co-staining experiments, the permeabilized A549-3R cells were first incubated with the antibodies and subsequently stained with bodipy-labeled senicapoc derivative 10b for 10 min (protocol 7a). The images were analyzed with the FITC filter set to observe the fluorescence generated by 10b and the TRITC filter set to observe the fluorescence emitted by the secondary antibody (Figure 5). In a further experiment, the order of staining modalities was reversed, i.e., the cells were first labeled with fluorescent probe 10b for 10 min and second with the antibodies (Figure 6).
The obtained green, red and yellow dots were analyzed as described in the cell staining experiments above. The density of antibody-stained KCa3.1 channels (red dots) was higher than the density of KCa3.1 channels stained with bodipy-labeled senicapoc derivative 10b independent of the order of staining modality (Table 3). […] A successful co-staining was only counted when the distance between the signal peak maxima was ≤1 pixel.

Data set [4] has the same target. Kind of data set: Blocking of staining by preincubation with senicapoc, fixed and living A549-3R cells (Protocols 3 and 4). The format is cell-based. Conditions: 30 µM senicapoc, 5 min, 4 °C. Here is the method:
After fixation of the cells (Section 2.10.2), 300 µL of a 30 µM solution of senicapoc blocking solution was added to the glass bottom dish. The glass bottom dish was incubated for 5 min at 4 °C. After incubation, the solution was removed and a mixture of 150 µL of 60 µM senicapoc solution and 150 µL of 20 µM staining solution were added to the glass bottom dish. The cells were incubated for 10 min at 4 °C in a dark chamber. Subsequently, the cells were washed five times with PBS and then used for fluorescence microscopy.
The cells were used without fixation. After incubating the cells for 24 h (Section 2.10.1), the medium was removed, and the cells were washed three times with 1 mL of PBS. Subsequently, the cells were stained as described in Protocol 3.
In order to show the specificity of labeling KCa3.1 channels by the fluorescent probe 10b, fixed and living cells were preincubated with 30 µM senicapoc (3) for 5 min at 4 °C. […] The complete blockade of the punctate staining pattern confirms that the KCa3.1 channel was labeled with probe 10b.

The test system of another data set is HEK293 cells. Kind of data set: Negative control staining of HEK293 cells, which do not express KCa3.1 channels. The format is cell-based. Particulars: HEK293 cells do not express KCa3.1 channels. Here is the method: After fixation of the cells (Section 2.10.2), 300 µL of the 10 µM staining solution was added to the glass bottom dish. The cells were incubated for 10 min at 4 °C in a dark chamber. After incubation, the cells were washed five times with 1 mL of PBS and used subsequently for fluorescence microscopy.
In a second control experiment, azide precursor 7b without the senicapoc warhead was incubated with fixed A549-3R tumor cells.

[5] abbreviates: living A549-3R cells, Protocol 2.

The term chromatographic logP denotes a lipophilicity value derived from retention on a column. A lower chromatographic logP goes with lower lipophilicity. In the case of `CCC1=C(C)C2=C(c3ccc(OCCOCCn4cc(COc5ccc(C(C(N)=O)(c6ccccc6)c6ccc(F)cc6)cc5)nn4)cc3)c3c(C)c(CC)c(C)n3[B-](F)(OC)[N+]2=C1C` (centres unmarked) [10b, 2-{4-[(1-{2-[4-(2,6-Diethyl-4-fluoro-4-methoxy-1,3,5,7-tetramethyl-4-bora-3a,4a-diaza-s-indacen-8-yl)phenoxy]ethoxyethyl}-1,2,3-triazol-4-yl)methoxy]phenyl}-2-(4-flluorophenyl)-2-phenylacetamide], in data set [1] (Protocol 2, 10 µM, 10 min, 4 °C), the “staining pattern of living A549-3R cells” value is “distinct punctate staining pattern”. Also, in data set [1] (setting [5]), the “FWHM of fluorescent dots” value turned out to be 4.89 ± 0.50 pixels and the “density of labeled KCa3.1 channels” value was determined as 1.11 ± 0.11 KCa3.1 channels per µm^2. This compound gave a chromatographic logP in data set [2] of 5.8. Besides, in data set [3] (Protocol 7a (antibody first)), the “Average Green (in % ± SD)” value is 41.5% and 41.5 ± 4.75%; the “Average Red (in % ± SD)” value was determined as 58.5 ± 9.60%. In data set [3] (Protocol 7b (10b first)), the “Average Green (in % ± SD)” value stood at 41.4 ± 5.56% and the “Average Red (in % ± SD)” value is reported as 58.6 ± 8.52%. The “co-staining of a single KCa3.1 channel with both imaging tools (yellow dots)” value in data set [3] (distance between signal peak maxima ≤1 pixel counted as co-staining) is reported as “hardly observed”. Also, in data set [4], the “staining pattern after preincubation with senicapoc” value is “did not lead to a punctate staining pattern”. Further, the “staining pattern of HEK293 cells (negative control)” value in the data set on HEK293 cells is recorded as “a punctate staining pattern was not observed; also recorded: could not be observed”.
